The assay addresses T1, Recombinant CETP enzyme (Homo sapiens, UniProt P11597).
T1 construct: purchased Cardiovascular Targets
T1 sequence (P11597 18-493): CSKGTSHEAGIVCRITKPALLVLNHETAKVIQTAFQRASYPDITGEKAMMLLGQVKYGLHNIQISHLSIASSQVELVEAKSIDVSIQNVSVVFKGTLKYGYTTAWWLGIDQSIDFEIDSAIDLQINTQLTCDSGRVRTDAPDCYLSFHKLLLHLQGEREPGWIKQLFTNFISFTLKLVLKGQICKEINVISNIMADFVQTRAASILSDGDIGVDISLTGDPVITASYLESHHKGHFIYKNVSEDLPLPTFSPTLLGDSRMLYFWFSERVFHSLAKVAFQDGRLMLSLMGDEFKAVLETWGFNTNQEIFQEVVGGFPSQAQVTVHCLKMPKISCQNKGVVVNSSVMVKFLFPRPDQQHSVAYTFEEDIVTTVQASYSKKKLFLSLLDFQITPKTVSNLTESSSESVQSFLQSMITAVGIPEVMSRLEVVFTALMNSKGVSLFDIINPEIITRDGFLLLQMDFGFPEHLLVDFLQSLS
Put plainly: In vitro fluorescence-based CETP inhibition assay (BODIPY-CE transfer from donor to acceptor microemulsions). Type of assay: biochemical. The conditions noted are these: recombinant CETP 0.14 ng/μl; transfer of fluorescent cholesteryl ester monitored over 2 hours; compared to DMSO controls. The method, then: An in vitro fluorescence-based assay to identify CETP inhibitors was developed from modifications of the protocols outlined in Bisgaier et al., J Lipid Res., 34(9): 1625-34 (1993) and Epps et al., Chem Phys Lipids., 77(1): 51-63 (1995). Acceptor and donor lipid microemulsions were prepared according to Bisgaier et al., 1993, except that the buffer was prepared with 0.67 ug/ml human HDL (Calbiochem). Donor microemulsions contained the fluorescent cholesteryl ester analog BODIPY-CE (Molecular Probes), characterized by excitation and emission maxima at 503 nm and 518 nm, respectively. The CETP-mediated transfer of fluorescent cholesteryl ester to acceptor particles was monitored over a 2-hour time period using the FAM filter set (excitation 492 nm, emission 516 nm) in an MX3000P fluorescent plate reader (Stratagene). Recombinant CETP enzyme (Cardiovascular Targets) was used at 0.14 ng/μl, final concentration, to achieve lipid transfer. CETP inhibition by compounds was compared to DMSO controls and graphed as a percentage of the control CETP activity over 2 hours. The IC50 curves for CETP inhibition were generated from the activity profiles. Active compounds were also tested for CETP inhibition as above, but in the presence of 3% human serum albumin, fraction V (Calbiochem).
Using this protocol, IC50 data for CETP inhibition were obtained.

With `CCOC(=O)N1c2c(c(C)nn2C)C(N(Cc2cc(C(F)(F)F)cc(C(F)(F)F)c2)C(=O)OC)CC1CC` (stereo not shown) [Example E1, 4-[(3,5-Bis-trifluoromethyl-benzyl)-methoxycarbonyl-amino]-6-ethyl-1,3-dimethyl-1,4,5,6-tetrahydro-pyrazolo[3,4-b]pyridine-7-carboxylic acid ethyl ester], the IC50 – broadly, the point on the concentration scale where inhibition reaches its midpoint – amounted to 4.6 µM.

For the origin of these results see US20060135551A1, “Novel heterocyclic compounds and their pharmaceutical compositions” (priority 2004, published 2006).
